From patent US11162951B2, “Membrane-impermeant fluorogenic chromophores” (PARIS SCIENCES ET LETTRES, priority 2017, dated 2021) come the findings set out here.

Several values for one entry are separate records, joined by “and”; a condition that tells them apart may be missing. Identical values can stand only once. Entries after “also recorded” stand apart in the source; their conditions may differ. Where only a bound is given, the exact number is not on record here.

Data set [1] addresses T1, FAST (variant of the photoactive yellow protein (PYP), SEQ ID NO: 3) (Halorhodospira halophila, UniProt P16113, C69G/D97P/F96I/M100R/Q99S/T101G/T95M/Y94W/Y98T).
T1 construct: His tag; made in house; host or cells: Rosetta(DE3)pLysS E. coli
Briefly: biochemical. The class given is binding. The settings on record: for Kd: KD affinity constant, FAST:fluorogen complex in PBS pH 7.4. The procedure:
In an embodiment, the thermodynamic dissociation constant KD is determined by spectrofluorometric titration as described in the Examples.
(§1) His-tagged FAST was expressed in Rosetta(DE3)pLysS E. coli (New England Biolabs). Cells were grown at 37° C. in Lysogeny Broth (LB) medium to OD600 nm 0.6. Expression was induced for 4 h by adding isopropyl β-D-1-thiogalactopyranoside (IPTG) to a final concentration of 1 mM. Cells were harvested by centrifugation (6,000×g for 15 min at 4° C.) and frozen. The cell pellet was resuspended in lysis buffer (phosphate buffer 50 mM, NaCl 150 mM, MgCl2 2.5 mM, protease inhibitor, DNase, pH 7.4) and sonicated (5 min at 20% of amplitude). The lysate was incubated for 2 h at 4° C. to allow DNA digestion by DNase. Cellular fragments were removed by centrifugation (15,000×g for 1 h at 4° C.). The supernatant was incubated overnight at 4° C. under gentle agitation with Ni-NTA agarose beads in phosphate buffered saline (PBS) (sodium phosphate 50 mM, NaCl 150 mM, pH 7.4) complemented with 10 mM Imidazole. Beads were washed with 20 volumes of PBS containing 20 mM Imidazole, and with 5 volumes of PBS complemented with 40 mM Imidazole. His-tagged proteins were eluted with 5 volumes of PBS complemented with 0.5 M Imidazole, followed by dialysis with PBS.
(§2) UV/Vis absorption spectra were recorded in 1 cm×1 cm quartz cuvettes (Hellma) on a diode array UV/Vis spectrophotometer (Evolution array, Thermo Scientific). Corrected fluorescence spectra upon one-photon excitation were recorded with a Photon Technology International QuantaMaster QM-1 spectrofluorimeter (PTI, Monmouth Junction, N.J.) equipped with a Peltier cell holder (TLC50, Quantum Northwest, Shoreline, Wash.).
(§3) Physico-chemical properties of FAST:fluorogen complexes in PBS pH 7.4 are described in Table 2 below: λabs, wavelength of maximal absorption; λem, wavelength of maximal emission; ε, molar absorption coefficient at λabs; ϕ, fluorescence quantum yield; KD affinity constant. The brightness is equal to ε×ϕ.

Data set [2] concerns the target T1, FAST (variant of the photoactive yellow protein (PYP), SEQ ID NO: 3). Briefly: Physico-chemical (absorption/fluorescence) properties of FAST:fluorogen complexes. The class given is physicochemical. As to conditions: for λabs, wavelength of maximal absorption / λem, wavelength of maximal emission / ϕ, fluorescence quantum yield / Brightness (ε×ϕ) / ε, molar absorption coefficient at λabs: FAST:fluorogen complex in PBS pH 7.4. On the procedure:
In an embodiment, the fluorescence quantum yields after one-photon excitation ϕ are calculated from the relation: […]
Methods for measuring the brightness are well-known in the art. Brightness corresponds to the fluorescence output per emitter and is the product of the molar absorption coefficient (at the excitation wavelength) and the fluorescence quantum yield.
as §1, §2, §3

Data set [3] relates to HeLa cells displaying FAST on the extracellular side (Ig κ-chain leader / PDGFR transmembrane domain). Briefly: Selective labeling of cell-surface FAST-tagged proteins, confocal imaging. The class given is cell-based. As to conditions: for Localisation of fluorescent labeling of FAST-tagged protein: 5 min. On the procedure:
(§4) The plasmid pAG211 for mammalian expression of FAST (fused also to mCherry as additional transfection marker) at the outer plasma membrane was obtained by inserting the sequence coding the protein of interest within the pDisplay plasmid (ThermoFisher) using Sal I and Bgl II restriction sites. The plasmid pAG96 for cytoplasmic expression of FAST fused to mCherry was previously reported (Plamont, M.-A. et al., 2016).
(§5) HeLa cells were cultured in DMEM supplemented with phenol red, Glutamax I, 10% (vol/vol) fetal calf serum (FCS), and 1% penicillin-streptomycin at 37° C. within a 5% CO2 atmosphere. For microscopic imaging, cells were seeded in μDish or μSlide IBIDI (Biovalley) coated with poly-L-lysine. Cells were transiently transfected using Genejuice (Merck) according to the manufacturer's protocol. Before imaging, cells were washed with PBS, and treated with DMEM media (without serum and phenol red) containing the fluorogens at the indicated concentration. Cells were imaged directly without washing.
(§6) Confocal micrographs were acquired on a Zeiss LSM 710 Laser Scanning Microscope equipped with a Plan Apochromat 63×/1.4 NA oil immersion objective. ZEN software was used to collect the data. Images were analyzed with Image J. Flow cytometry analyses were performed on an Accuri C6 cytometer (BD Biosciences).
Next, the use of HBRAA-3E for the selective labeling of cell-surface FAST-tagged proteins was studied. A polypeptide was engineered comprising a FAST in between a murine Ig κ-chain leader sequence and the platelet derived growth factor receptor (PDGFR) transmembrane domain. FAST was fused at the […] of the PDGFR transmembrane domain, which anchors the protein to the plasma membrane. The resulting FAST-tagged protein was expressed transiently in HeLa cells.

In data set [4] the test system is HeLa cells expressing FAST fused to mCherry in the cytoplasm. Briefly: Cell exclusion after prolonged exposure, confocal imaging. The class given is cell-based. The settings on record: 5 μM, two hours, cytoplasmic FAST-mCherry. The procedure:
as §4, §5, §6
Cell exclusion after prolonged exposure was then evaluated. […]

T1 sequence (P16113 whole entry C69G/Y94W/T95M/F96I/D97P/Y98T/Q99S/M100R/T101G): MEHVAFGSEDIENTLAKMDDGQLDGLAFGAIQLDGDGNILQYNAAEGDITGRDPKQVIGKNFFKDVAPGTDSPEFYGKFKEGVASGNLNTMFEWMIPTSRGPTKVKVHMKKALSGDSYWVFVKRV

A word on the Kd: it is the concentration at which binding is half-saturated. A high value points to weaker binding. In the case of `COc1cc(/C=C2\SC(=S)N(CC(=O)O)C2=O)cc(OC)c1O` [HBRAA-3,5DOM, (Z)-2-(5-(4-hydroxy-3,5-dimethoxybenzylidene)-4-oxo-2-thioxothiazolidin-3-yl)acetic acid], in data set [1], the “Affinity for FAST, in words” value was “none of the complexes formed by di-substituted compounds HBRAA-2,5DM, HBRAA-3,5DM and HBRAA-3,5DMO has an affinity higher than the one of HBRAA-3M”; the Kd was more than 20000 nM. Also, in data set [2], the “λabs, wavelength of maximal absorption” value is 532 nm; the “λem, wavelength of maximal emission” value came out at 606 nm; the “ϕ, fluorescence quantum yield” value stood at 1%.
Take `Cc1cc(/C=C2\SC(=S)NC2=O)ccc1O` [HMBR, 4-hydroxy-3-methylbenzylidene rhodanine, reference compound]: the “Localisation of fluorescent labeling of FAST-tagged protein” value in data set [3] (5 μM) was “labeling of FAST-tagged proteins both at the membrane and within the secretory pathway; also recorded: revealed membrane and intracellular proteins”. Also, the “Labeling after subsequent addition to cells pre-treated 1 h with HBRAA-3E” value in data set [3] (immediate imaging (<10 s)) is “revealed proteins within the secretory pathway”.
Consider `COc1cc(O)ccc1/C=C1\SC(=S)N(CC(=O)O)C1=O` [HBRAA-2OM, (Z)-2-(5-(4-hydroxy-2-methoxybenzylidene)-4-oxo-2-thioxothiazolidin-3-yl)acetic acid], for which, in data set [1], the Kd is 500 nM and 480 nM. In data set [2], the “Brightness (ε×ϕ)” value is on record as “about 2,800”; the “ε, molar absorption coefficient at λabs” value is 55 mM⁻¹ cm⁻¹; the “λabs, wavelength of maximal absorption” value is 497 nm; the “λem, wavelength of maximal emission” value worked out at 537 nm. The “ϕ, fluorescence quantum yield” value in data set [2] worked out at 5%. For the same molecule, the “Brightness (ε×ϕ)” value in data set [2] (listed as FAST:HBRAA-2OM) is listed as 2,800.
In data set [1], `CCOc1cc(/C=C2\SC(=S)N(CC(=O)O)C2=O)ccc1O` [HBRAA-3OE, (Z)-2-(5-(4-hydroxy-3-ethoxybenzylidene)-4-oxo-2-thioxothiazolidin-3-yl)acetic acid] displayed a Kd of 1700 nM. In data set [2], the “Brightness (ε×ϕ)” value is “about 3,700”; the “ε, molar absorption coefficient at λabs” value was determined as 62 mM⁻¹ cm⁻¹; the “λabs, wavelength of maximal absorption” value was determined as 525 nm; the “λem, wavelength of maximal emission” value is on record as 575 nm. Further, the “ϕ, fluorescence quantum yield” value in data set [2] is recorded as 6%. In addition, the “Brightness (ε×ϕ)” value in data set [2] (listed as FAST:HBRAA-3OE) is recorded as 3,700. For the same molecule, in data set [2] (in words), the “Shift of absorption and emission of the FAST complex compared with HBRAA-3E” value was “further red-shifted the absorption and the emission”.
For the molecule `Cc1cc(/C=C2\SC(=S)N(CC(=O)O)C2=O)cc(C)c1O` [HBRAA-3,5DM, (Z)-2-(5-(4-hydroxy-3,5-dimethylbenzylidene)-4-oxo-2-thioxothiazolidin-3-yl)acetic acid], in data set [1], the “Affinity for FAST, in words” value is “none of the complexes formed by di-substituted compounds HBRAA-2,5DM, HBRAA-3,5DM and HBRAA-3,5DMO has an affinity higher than the one of HBRAA-3M”; the Kd was more than 20000 nM. Further, in data set [2], the “λabs, wavelength of maximal absorption” value was 522 nm; the “λem, wavelength of maximal emission” value came to 571 nm; the “ϕ, fluorescence quantum yield” value is listed as 4%.
As for `O=C1NC(=S)S/C1=C\c1ccc(O)cc1` [HBR, 4-hydroxybenzylidene rhodanine, reference compound], in data set [2], the “Brightness (ε×ϕ)” value is 4,000; the “ε, molar absorption coefficient at λabs” value is 44 mM⁻¹ cm⁻¹; the “λabs, wavelength of maximal absorption” value was found to be 467 nm; the “λem, wavelength of maximal emission” value was 527 nm. Further, in data set [2], the “ϕ, fluorescence quantum yield” value worked out at 9%.
Regarding `COc1cc(/C=C2\SC(=S)N(CC(=O)O)C2=O)ccc1O` [HBRAA-3OM, (Z)-2-(5-(4-hydroxy-3-methoxybenzylidene)-4-oxo-2-thioxothiazolidin-3-yl)acetic acid], in data set [1], the “Affinity for FAST, in words” value is “almost no affinity with FAST” and the Kd is more than 20000 nM. In addition, in data set [2], the “λabs, wavelength of maximal absorption” value amounted to 520 nm; the “λem, wavelength of maximal emission” value amounted to 572 nm; the “ϕ, fluorescence quantum yield” value is on record as 2%.
As to `CCc1cc(/C=C2\SC(=S)N(CC(=O)O)C2=O)ccc1O` [HBRAA-3E, (Z)-2-(5-(3-ethyl-4-hydroxybenzylidene)-4-oxo-2-thioxothiazolidin-3-yl)acetic acid], in data set [1], the Kd is ~1300 nM and 1300 nM. In data set [2], the “Red shift in absorption compared to FAST:HMBR” value was found to be 25 nm; the “Red shift in emission compared to FAST:HMBR” value is 20 nm; the “Brightness (ε×ϕ)” value is “about 4,900”; the “ε, molar absorption coefficient at λabs” value came to 61 mM⁻¹ cm⁻¹. For the same molecule, in data set [2], the “λabs, wavelength of maximal absorption” value was 505 nm; the “λem, wavelength of maximal emission” value is 559 nm; the “ϕ, fluorescence quantum yield” value is listed as 8%. For the same molecule, the “Brightness (ε×ϕ)” value in data set [2] (listed as FAST:HBRAA-3E) is 4,900. Also, in data set [4], the “Intracellular labeling (cell exclusion)” value is on record as “no intracellular labeling”. Besides, the “Localisation of fluorescent labeling of FAST-tagged protein” value in data set [3] (5 μM) was “fluorescent labeling only at the plasma membrane; also recorded: revealed only surface-exposed proteins”. For the same molecule, in data set [3] (5 μM, 1 h), the “Intracellular labeling upon longer incubation” value is on record as “no intracellular labeling”.
As for `Cc1cc(/C=C2\SC(=S)N(CC(=O)O)C2=O)c(C)cc1O` [HBRAA-2,5DM, (Z)-2-(5-(4-hydroxy-2,5-dimethylbenzylidene)-4-oxo-2-thioxothiazolidin-3-yl)acetic acid], in data set [1], the “Affinity for FAST, in words” value is “none of the complexes formed by di-substituted compounds HBRAA-2,5DM, HBRAA-3,5DM and HBRAA-3,5DMO has an affinity higher than the one of HBRAA-3M”; the Kd came to 5400 nM. Also, in data set [2], the “Brightness (ε×ϕ)” value is given as 3,200; the “ε, molar absorption coefficient at λabs” value came to 63 mM⁻¹ cm⁻¹; the “λabs, wavelength of maximal absorption” value amounted to 519 nm; the “λem, wavelength of maximal emission” value is given as 566 nm. For the same molecule, the “ϕ, fluorescence quantum yield” value in data set [2] was 5%.
With `Cc1cc(/C=C2\SC(=S)N(CC(=O)O)C2=O)ccc1O` [HBRAA-3M, (Z)-2-(5-(4-hydroxy-3-methylbenzylidene)-4-oxo-2-thioxothiazolidin-3-yl)acetic acid], in data set [1], the Kd was found to be 6400 nM. In data set [2], the “Brightness (ε×ϕ)” value is reported as 3,400; the “ε, molar absorption coefficient at λabs” value came out at 56 mM⁻¹ cm⁻¹; the “λabs, wavelength of maximal absorption” value is given as 502 nm; the “λem, wavelength of maximal emission” value stood at 557 nm. For the same molecule, the “ϕ, fluorescence quantum yield” value in data set [2] is on record as 6%. The “Brightness compared with FAST:HMBR” value in data set [2] (in words) is “three-fold lower brightness”.
As for `O=C(O)CN1C(=O)/C(=C/c2ccc(O)cc2)SC1=S` [HBRAA, (Z)-2-(5-(4-hydroxybenzylidene)-4-oxo-2-thioxothiazolidin-3-yl)acetic acid], in data set [1], the “Affinity for FAST, in words” value is recorded as “almost no affinity for FAST” and the Kd was more than 20000 nM. Further, in data set [2], the “λabs, wavelength of maximal absorption” value is on record as 488 nm and the “λem, wavelength of maximal emission” value stood at 555 nm.
